# Source: paper PMC9886279, “A choline-releasing glycerophosphodiesterase essential for phosphatidylcholine biosynthesis and blood stage development in the malaria parasite” (eLife, 2022)
# Target: T1, PfGDPD-HA (PfGDPD; glycerophosphodiesterase) (Plasmodium falciparum, UniProt Q8IM31)
# T1 construct: gene PF3D7_1406300; endogenous locus, recodonised segment 24-475 aa, C-terminal 3xHA tag kept; 475-residue precursor with N-terminal signal peptide
# Test: LC-MS/MS of GPC consumption and choline release by bead-bound affinity-purified enzyme
# Assay type: biochemical
# Details: enzyme immobilised on anti-HA beads; 100 mM HEPES pH 7.5, 150 mM NaCl, 10 mM MgCl2, 37°C; GPC 1 mM (Methods) or 10 mM (Figure 6 legend)
# T1 sequence (Q8IM31 entry or part of it): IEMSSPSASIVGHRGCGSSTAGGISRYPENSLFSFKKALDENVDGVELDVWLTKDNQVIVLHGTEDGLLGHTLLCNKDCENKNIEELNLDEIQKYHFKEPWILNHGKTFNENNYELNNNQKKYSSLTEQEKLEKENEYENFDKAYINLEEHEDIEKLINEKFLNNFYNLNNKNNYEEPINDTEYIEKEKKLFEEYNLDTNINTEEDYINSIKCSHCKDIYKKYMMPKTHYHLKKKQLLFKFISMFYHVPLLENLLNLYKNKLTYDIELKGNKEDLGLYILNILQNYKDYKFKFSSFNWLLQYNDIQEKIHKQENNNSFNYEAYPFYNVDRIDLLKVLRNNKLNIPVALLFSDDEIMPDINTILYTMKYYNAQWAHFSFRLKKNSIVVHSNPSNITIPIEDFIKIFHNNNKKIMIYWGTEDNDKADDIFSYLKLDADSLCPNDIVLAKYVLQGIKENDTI
structure (smiles),measurement,value
C[N+](C)(C)CCOP(=O)([O-])OC[C@H](O)CO [GPC],LC-MS/MS of GPC consumption and choline release by bead-bound affinity-purified,resulted in the time-dependent appearance of choline with a concomitant decrease in GPC levels
